# Experimental data as given in US20110065739A1, “NOVEL ISOXAZOLE DRIVATIVE” (priority 2008, published 2011).
# Structures can show the parent of a compound that is named as a salt.
# Biological target: T1, human GPR120 (Homo sapiens, UniProt Q5NUL3)
# T1 construct: expressed in transfected cells
# T1 sequence (Q5NUL3 1-361): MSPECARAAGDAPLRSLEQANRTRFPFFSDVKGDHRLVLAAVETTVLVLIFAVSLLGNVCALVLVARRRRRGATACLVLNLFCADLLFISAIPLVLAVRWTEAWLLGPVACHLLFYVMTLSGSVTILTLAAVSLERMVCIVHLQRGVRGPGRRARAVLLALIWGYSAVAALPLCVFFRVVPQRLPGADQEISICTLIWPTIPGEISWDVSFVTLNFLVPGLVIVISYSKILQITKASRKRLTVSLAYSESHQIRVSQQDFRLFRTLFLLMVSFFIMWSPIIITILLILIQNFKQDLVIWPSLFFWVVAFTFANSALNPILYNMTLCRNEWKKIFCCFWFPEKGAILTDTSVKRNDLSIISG
# Assay: Measurement of intracellular calcium concentration (FLIPR), GPR120 agonist action
# Format: cell-based
# Settings: 10 μmol/l test compound, human GPR120 expression CHO cells, Fluo-4 AM
# Procedure: Using Lipofectamine 2000 (Invitrogen), cDNA of GPR120 receptor was transfected into CHO/NFAT-BLA cells, and drug-resistant cells were isolated to obtain GPR120 stable expression strains. The GPR120-expressed CHO cells were cultured in DMEM/F12 medium containing 10% fetal bovine serum, 100 units/ml penicillin, 0.1 mg/ml streptomycin sulfate, 250 μg/ml Zeocin, 500 μg/mL Geneticin and 15 mM HEPES. On the day before the measurement day, 4 μM Fluo-4 AM (fluorescence calcium indicator reagent) was incubated to be introduced into the human GPR120 expression CHO cells plated at 20000 cells per well of a 96-well black plate (ViewPlate; Packard) in the presence of 2.5 mM probenecid in a CO2 incubator for 1 hour. To the cells was added the test compound diluted with HBSS solution containing 20 mM HEPES and 2.5 mM probenecid. Variations in the intracellular calcium concentration were measured by Fluorescence Imaging Plate Reader (FLIPR; Molecular Devices) to examine the agonist action, and EC50 values were calculated.
row,Agonistic activity at 10 μmol/l (%),Compound
1,76%,N-[4-(3-hydroxyisoxazol-5-yl)benzyl]-3-isopropoxy-N-methylaniline [Example 65]
2,98%,5-(4-(2-(3-ethylphenyl)-1-methylethoxy)phenyl)isoxazol-3-ol [Example 35]
3,93%,5-{4-[(2-fluoro-2-{3-[(1-methylethyl)oxy]phenyl}ethyl)oxy]phenyl}isoxazol-3-ol [Example 31]
4,100%,"CC(C)Cc1cccc(CC(C)Oc2ccc(-c3cc(O)no3)cc2)c1 (centres unmarked) [Example 53, 5-{4-[2-(3-isobutylphenyl)-1-methylethoxy]phenyl}isoxazol-3-01]"
5,96%,CC(Cc1ccc(-c2cc(O)no2)cc1)Oc1cccc(OC(F)(F)F)c1 (centres unmarked) [Example 19]
6,77%,N-[4-(3-hydroxyisoxazol-5-yl)benzyl]-3-isopropoxy-N-methylbenzenesulfonamide [Example 51]
7,110%,"COc1cccc(C(F)COc2ccc(-c3cc(O)no3)cc2)c1 (centres unmarked) [Example 2, 5-(4-(2-fluoro-2-(3-methoxyphenyl)ethoxy)phenyl)isoxazol-3-61]"
8,91%,"CC(C)Oc1cccc(C[C@@H](C)Oc2ncc(-c3cc(O)no3)cn2)c1 [Example 32, 5-{2-[((1R)-1-methyl-2-{3-[(1-methylethyl)oxy]phenyl}ethyl)oxy]pyrimidin-5-yl}isoxazol-3-01]"
9,96%,"CC(Cc1ccc(-c2cc(O)no2)cc1)Oc1ccc(Cl)cc1 (centres unmarked) [Example 16, 5-(4-(2-(4-chlorophenoxy)propyl)phenyl)isoxazol-3-01]"
10,91%,"5-{4-[(2,2-difluoro-2-{3-[(1-methylethyl)oxy]phenyl}ethyl)oxy]phenyl}isoxazol-3-ol [Example 30]"
11,91%,"Cc1cccc(OC(C)Cc2ccc(-c3cc(O)no3)cc2)c1 (centres unmarked) [Example 11, 5-(4-(2-(3-methylphenoxy)propyl)phenyl)isoxazol-3-01]"
12,97%,"CC(Cc1ccc(-c2cc(O)no2)cc1)Oc1ccc(Cl)cc1Cl (centres unmarked) [Example 18, 5-(4-(2-(2,4-dichlorophenoxy)propyl)phenyl)isoxazol-3-01]"
13,94%,CC(C)Oc1cccc(C[C@@H](C)Oc2ccc(-c3cc(O)no3)cc2)c1 [Example 20]
14,90%,CC(C)Oc1ccccc1C(C)COc1ccc(-c2cc(O)no2)c(F)c1 (centres unmarked) [Example 39]
15,97%,"CC(Cc1ccc(-c2cc(O)no2)cc1)Oc1ccc(Cl)cc1F (centres unmarked) [Example 17, 5-(4-(2-(4-chloro-2-fluorophenoxy)propyl)phenyl)isoxazol-3-01]"

row,Compound,Agonistic activity at 10 μmol/l (%)
1,"CC(C)Oc1cccc(CC(C)Oc2ccc(-c3cc(O)no3)c(F)c2)c1 (centres unmarked) [Example 6, 5-{2-fluoro-4-[2-(3-isopropoxyphenyl)-1-methylethoxy]phenyl}isoxazol-3-01]",98%
2,CC(C)Oc1cccc(C(C)(C)COc2ccc(-c3cc(O)no3)cn2)c1.O=C(O)C(F)(F)F [Example 44],99%

# Same assay, conditions: 10 μmol/l test compound, human GPR120 expression CHO cells, Fluo-4 AM, read-out: Agonistic activity at 10 μmol/l (%)
row,Compound,activation at 10 µM
1,"CC(C)Oc1cccc(C(C)(C)COc2ccc(-c3cc(O)no3)c(F)c2)c1 [Example 38, 5-{2-fluoro-4-[2-(3-isopropoxyphenyl)-2-methylpropoxy]phenyl}isoxazol-3-ol]",92%
2,"CC(C)Oc1cccc(C[C@H](C)Oc2ccc(-c3cc(O)no3)cn2)c1 [Example 27, 5-{6-[((1S)-1-methyl-2-{3-[(1-methylethyl)oxy]phenyl}ethyl)oxy]pyridin-3-yl}isoxazol-3-ol Hydrochloride]",99%
3,"CC(Cc1ccc(-c2cc(O)no2)cc1)Oc1cccc(C(F)(F)F)c1 (centres unmarked) [Example 13, 5-(4-(2-(3-(trifluoromethyl)phenoxy)propyl)phenyl)isoxazol-3-ol]",93%
4,"C[C@H](Cc1cccc(OC(F)(F)F)c1)Oc1ccc(-c2cc(O)no2)cc1 [Example 23, 5-{4-[((1R)-1-methyl-2-{3-[(trifluoromethyl)oxy]phenyl}ethyl)oxy]phenyl}isoxazol-3-ol]",101%
5,"C[C@H](Cc1ccc(Cl)c(OC(F)(F)F)c1)Oc1ccc(-c2cc(O)no2)cc1 [Example 25, 5-{4-[((1R)-2-{4-chloro-3-[(trifluoromethyl)oxy]phenyl}-1-methylethyl)oxy]phenyl}isoxazol-3-ol]",91%
6,"C[C@H](Cc1ccc(OC(F)(F)F)cc1)Oc1ccc(-c2cc(O)no2)cc1 [Example 24, 5-{4-[((1R)-1-methyl-2-{4-[(trifluoromethyl)oxy]phenyl}ethyl)oxy]phenyl}isoxazol-3-ol]",86%
7,"CC(C)Oc1cccc(CC(C)Oc2ccc(-c3cc(O)no3)cc2)c1 (centres unmarked) [Example 1, 5-(4-(2-(3-isopropoxyphenyl)-1-methylethoxy)phenyl)isoxazol-3-ol]",104%
8,"CC(C)Oc1cccc(C(F)COc2ccc(-c3cc(O)no3)cc2)c1 (centres unmarked) [Example 29, 5-{4-[(2-fluoro-2-{3-[(1-methylethyl)oxy]phenyl}ethyl)oxy]phenyl}isoxazol-3-ol]",102%
9,"CCOc1cccc(CC(C)Oc2ccc(-c3cc(O)no3)c(F)c2)c1 (centres unmarked) [Example 37, 5-{2-fluoro-4-[2-(3-ethoxyphenyl)-1-methylethoxy]phenyl}isoxazol-3-ol]",97%
10,"CC(C)Oc1cccc(C(F)(F)COc2ccc(-c3cc(O)no3)cc2)c1 [Example 36, 5-(4-(2,2-difluoro-2-(3-isopropoxyphenyl)ethoxy)phenyl)isoxazol-3-ol]",100%
11,"CC(Cc1ccc(-c2cc(O)no2)cc1)Oc1ccccc1 (centres unmarked) [Example 10, 5-(4-(2-phenoxypropyl)phenyl)isoxazol-3-ol]",93%

# More lines, now with the values ahead:
row,activation at 10 µM,Compound
1,91%,"CC(C)Oc1cccc(C(=O)C(C)Oc2ccc(-c3cc(O)no3)cc2)c1 (centres unmarked) [Example 46, 2-[4-(3-hydroxyisoxazol-5-yl)phenoxy]-1-(3-isopropoxyphenyl)propan-1-one]"
2,65%,"CC(C)Oc1cccc(CCN(C)c2ccc(-c3cc(O)no3)cc2)c1 [Example 60, 4-(3-hydroxyisoxazol-5-yl)-N-[2-(3-isopropoxyphenyl)ethyl]-N-methylaniline Trifluoroacetate]"
3,101%,"CC(C)Oc1cccc(SC(C)Cc2ccc(-c3cc(O)no3)cc2)c1 (centres unmarked) [Example 55, 5-(4-{2-[(3-isopropoxyphenyl)thio]propyl}phenyl)isoxazol-3-ol]"
4,87%,"CC(C)Oc1cccc(C(C)N(C)Cc2ccc(-c3cc(O)no3)cc2)c1 (centres unmarked) [Example 41, 5-(4-{[[1-(3-isopropoxyphenyl)ethyl](methyl)amino]methyl}phenyl)isoxazol-3-ol]"
5,96%,"CCOc1cccc(CC(C)Oc2ccc(-c3cc(O)no3)cc2F)c1 (centres unmarked) [Example 56, 5-{4-[2-(3-ethoxyphenyl)-1-methylethoxy]-3-fluorophenyl}isoxazol-3-ol]"
6,80%,"CC(C)Oc1cccc(C(C)SCc2ccc(-c3cc(O)no3)cc2)c1 (centres unmarked) [Example 50, 5-[4-({[1-(3-isopropoxyphenyl)ethyl]thio}methyl)phenyl]isoxazol-3-ol]"
7,79%,"COc1cc(-c2cc(O)no2)ccc1OC(C)Cc1cccc(OC(C)C)c1 (centres unmarked) [Example 61, 5-{4-[2-(3-isopropoxyphenyl)-1-methylethoxy]-3-methoxyphenyl}isoxazol-3-ol]"
8,84%,"CC(C)Oc1cccc(CN(C)C(C)c2ccc(-c3cc(O)no3)cc2)c1 (centres unmarked) [Example 49, 1-[4-(3-hydroxyisoxazol-5-yl)phenyl]-N-(3-isopropoxybenzyl)-N-methylethanamine Trifluoroacetate]"
9,98%,"CC(C)Oc1cccc(C(=O)COc2ccc(-c3cc(O)no3)cc2)c1 [Example 42, 2-[4-(3-hydroxyisoxazole-5-yl)phenoxy]-1-(3-isopropoxyphenyl)ethanone]"
10,85%,"CC(Cc1cccc(N(C)C)c1)Oc1ccc(-c2cc(O)no2)cc1 (centres unmarked) [Example 45, 3-{2-[4-(3-hydroxyisoxazol-5-yl)phenoxy]propyl}-N,N-dimethylaniline Hydrochloride]"
11,91%,"CC(C)Oc1cccc(N(C)C(C)Cc2ccc(-c3cc(O)no3)cc2)c1 (centres unmarked) [Example 58, 5-(4-{2-[(3-isopropoxyphenyl)(methyl)amino]propyl}phenyl)isoxazol-3-ol]"
12,96%,"CC(Cc1cccc(OC(C)C)c1)Nc1ccc(-c2cc(O)no2)cc1 (centres unmarked) [Example 59, 4-(3-hydroxyisoxazol-5-yl)-N-[2-(3-isopropoxyphenyl)-1-methylethyl]aniline Trifluoroacetate]"
13,92%,"CC(C)Oc1cccc(N(C)CCc2ccc(-c3cc(O)no3)cc2)c1 [Example 48, N-{2-[4-(3-hydroxyisoxazol-5-yl)phenyl]ethyl}-3-isopropoxy-N-methylaniline Trifluoroacetate]"
